Laboratory results: PMC3726599, “A Metabolically-Stabilized Phosphonate Analog of Lysophosphatidic Acid Attenuates Collagen-Induced Arthritis” (PLoS ONE, 2013)
Read-outs that look alike come from different tables or passages of the source.

How the values were obtained:
[1] = test system: lymphocyte trafficking; design: method as in PMID 23365076; settings: cited from earlier work
[2] = test system: LPA production in whole blood; experiment: LPA and LPC levels in whole blood ex vivo (HPLC-MS/MS); design: species or system mouse
Experimental: BrP-LPA, LPA species (C14:0, C16:0, C18:0, C18:1 and C20:4) and LPC species (C14:0, C16:0, C18:0, C18:1 and C20:0) were measured in plasma with HPLC-ESI/MS/MS using RSLCnano system (Ultimate 3000) coupled in-line with an LTQ Orbitrap XL mass spectrometer (Thermo Scientific, Waltham, MA, USA). BrP-LPA and lipid (LPA, LPC) extraction from plasma was performed on ice according to the Folch method with minor modifications. Plasma samples (50 ul) were mixed with 950 ul PBS prior to extraction and spiked with the internal standard mix (17:1 LPA/LPC). Samples were extracted under neutral conditions with 4 ml of ice-cold CHCl3/CH3OH (2/1, v/v) followed by 2 ml of PBS-saturated ice-cold CHCl3/CH3OH (2/1, v/v). Each extraction step was followed by a 60 s vortex and a 1 min centrifugation step in a bench-top clinical centrifuge in a cold room at 4°C at 3,000 rpm. The lower chloroform organic phases from both neutral extraction steps were pooled and kept for LPC measurement. The remained aqueous phase was chilled on ice for 10 min and extracted twice with ice-cold acidified with acetic acid CHCl3/CH3OH (2/1, v/v) as above. The lower organic phases were pooled, neutralized to pH 6–7 (checked with pH paper as above) on ice and kept for LPA, BrP-LPA measurements. The kept neutral lower organic phase of neutral extraction and the neutralized acidified lower organic phase were evaporated to dryness. The resulting residues were resuspended in 0.15 ml of isopropanol and after brief vortex mixing the solution was transferred to the auto sampler vial. Recovery of LPA species was between 60% and 95%. Recovery of BrP-LPA was 70% and the recovery of LPC species was between 80% and 100%. The Relative Standard Deviation (RSD) was less than 7% from the plasma fortified with three different concentrations (0.1, 0.5 and 1 μΜ) of LPAs, (0.1, 1 and 10 μΜ) of BrP-LPA and (0.5, 5 and 50 μΜ) of LPCs. Analysis was performed using a Phenomenex (Phenomenex, Torrance, CA, USA) Luna Silica column (2–250 mm, 5 μm particle size) using a binary gradient program consisting of isopropanol:hexane:100 mM NH4CO2H(aq) 58:40:2 (mobile phase A) and isopropanol:hexane:100 mM NH4CO2H(aq) 50:40:10 (mobile phase B). The mobile phase was delivered at a flow rate of 0.3 ml/min and the total run time was 50 min/sample. The analysis was performed with electrospray ionization in negative SIM (Single Ion Monitoring) mode for LPA species and BrP-LPA and in positive mode for LPC species (data dependent MS/MS). The resolution was 100 K providing high accuracy for lysophospholipid measurements. Data were collected and processed with the Xcalibur software (Thermo Scientific). The precursor ion mass was used for the quantification while lipid identity was confirmed by precursor ion fragmentation using collision induced dissociation (CID). The peak area ratios (lipid/internal standard) versus the molar ratios (lipid/internal standard) were plotted and fitted to a linear regression. The linear dynamic range of LPA species and BrP-LPA was between 0.01 μM and 10 μΜ.
The inhibition model (competitive, noncompetitive, or mixed type inhibition) was evaluated by graphical analysis with Lineweaver–Burk double reciprocal plots (1/[velocity] versus 1/[substrate]) and Cornish-Bowden plot ([substrate]/[velocity] versus [Inhibitor]). These plots were generated by the measurement of ATX activity in the presence of different BrP-LPA concentrations (0–10 μΜ) and increased amounts of 16:0 LPC (100, 200, 400 μΜ). The inhibition constants (Ki) and IC50 values were determined using the mean values obtained from two independent experiments. The relative remaining ATX activity or LPA levels in the presence of the BrP-LPA was expressed as a percentage of the corresponding control value (ATX activity, LPA levels without inhibitor). […]

- IC50 ([2]; read-out: IC50, production of 16:0 LPA): 1.34 µM
- IC50 ([2]; read-out: IC50, production of 18:0 LPA): 0.3 µM
- IC50 ([2]; read-out: IC50, production of 18:1 LPA): 1.52 µM
- IC50 ([2]; read-out: IC50, production of 20:4 LPA): 0.559 µM
Compound: CCCCCCCCCCCCCCCC(=O)OC[C@@H](O)CC(Br)P(=O)(O)O (stereo partly drawn) [BrP-LPA, 1-bromo-3(S)-hydroxy-4-(palmitoyloxy)butyl-phosphonate]
- lymphocyte trafficking in draining lymph nodes [1]: reduce lymphocyte trafficking in draining lymph nodes
- reduction of 18:0 LPA levels ([2]; BrP-LPA 10 μM): 97%
- reduction of total LPA levels ([2]; BrP-LPA 10 μM): 86%
- endogenous LPC levels ([2]; upon addition of BrP-LPA): no significant changes
